Results: PMC9134315, “Systemic Administration of a Brain Permeable Cdk5 Inhibitor Alters Neurobehavior” (Frontiers in Pharmacology, 2022)
Read-outs that look alike come from different tables or passages of the source.

Assay: Pharmacokinetic profile in mice after I.V. injection (LC-MS/MS of plasma, brain, liver, kidney)
Assay type: in vivo, mouse
Details: for AUC(0-t): read-out: AUC24h; for concentration at 24 h: read-out: Clast; for k el: read-out: Ke (converted)
Protocol: The wild-type group housed male C57BL/6 mice 10–12 weeks of age were used for all in vivo, ex vivo, and behavioral studies. This age range was selected to be consistent with previous studies of conditional Cdk5 knockout mice ([Plattner et al., 2015]). 25–106 was administered in a 20-fold dose range intravenously (I.V.) at 10, 50, 100, and 200 mg/kg for pharmacokinetic studies. This delivery mode was used as I.V. injections to avoid first-pass drug metabolism observed using other injection methods ([Pond and Tozer, 1984]). […] All animal experiments were performed under approved protocols by the University of Alabama at Birmingham (UAB) Institutional Animal Care and Use Committees and in accordance with the guidelines of the Animal Welfare Act and the Guide for the Care and Use of Laboratory Animals.
A quantitative determination of 25–106 in mouse plasma and tissue homogenate was accomplished by the use of protein precipitation and high-performance liquid chromatography with tandem mass spectrometry detection (LC-MS/MS). 5-(N,N-hexamethylene) amiloride (HMA) was used as the internal standard (IS). 25–106 and IS were typically extracted from 50 µL of mouse plasma or tissue homogenate using protein precipitation with methanol. The extracts were analyzed by reverse-phase chromatography using an ACE Excel 3 C18-PFP column under isocratic conditions at a flow rate of 500 μL/min. The column temperature was maintained at 40°C. The mobile phase A consisted of 0.1% formic acid in water, and the mobile phase B was acetonitrile. A triple–quadrupole mass spectrometer (AB Sciex 5,000) equipped with TurboV IonSpray operating in positive-ion mode was used. Column effluents were analyzed by multiple reaction monitoring (MRM). The precursor/product transitions are 346.1 to 137.1 m/z for 25–106 and 312.37 to 129.5 m/z for IS. The calibration curve was fit using weighted (1/x^2) linear regression analysis of the 25–106/IS peak area ratio vs. the 25–106 concentration from 1.0–80.0 ng/ml (ng/g for tissue) for the low curve and 80.0–10,000 ng/ml (ng/g for tissue) for the high curve. The concentrations of incurred and quality control samples were calculated with the same regression analysis, and the results were reported in ng/mL (plasma) or ng/g (tissue) of 25–106.
To assess the pharmacokinetic and pharmacodynamic parameters of 25–106 in vivo, we utilized the LC-MS/MS detection method established above (see Figure 5). The mice were administered IV injections of 25–106 doses of 10, 50, 100, or 200 mg/kg. The animals were euthanized, and organs were harvested at 1, 2, 6, and 24 h post injection. Within the same experiment, tissues were used for biochemical analysis of 25–106 effects on Cdk5 activity (see Figures 3A, B).

[1] = male, C57BL/6, mouse, iv, brain, 10 mg/kg I.V.
[2] = male, C57BL/6, mouse, iv, brain, 50 mg/kg I.V.
[3] = male, C57BL/6, mouse, iv, brain, 100 mg/kg I.V.
[4] = male, C57BL/6, mouse, iv, brain, 200 mg/kg I.V.
[5] = male, C57BL/6, mouse, iv, kidney, 50 mg/kg I.V.
[6] = male, C57BL/6, mouse, iv, kidney, 100 mg/kg I.V.
[7] = male, C57BL/6, mouse, iv, kidney, 200 mg/kg I.V.
[8] = male, C57BL/6, mouse, iv, plasma, 10 mg/kg I.V.
[9] = male, C57BL/6, mouse, iv, plasma, 50 mg/kg I.V.
[10] = male, C57BL/6, mouse, iv, plasma, 100 mg/kg I.V.
[11] = male, C57BL/6, mouse, iv, plasma, 200 mg/kg I.V.

SMILES: COc1cc(CC(=O)Nc2cc(C3CCC3)[nH]n2)cc(OC)c1OC [25–106, N-(5-cyclobutyl-1H-pyrazol-3-yl)-2-(3,4,5-trimethoxyphenyl)acetamide]
- detectability in the brain and plasma (24 h after injection, I.V.): remaining detectable
- demethylated metabolites detected (LC-MS/MS, mice): No demethylated metabolite structures
- V (brain, 10 mg/kg I.V.): 77.39 ± 25.63 L
- V (brain, 50 mg/kg I.V.): 151.24 ± 58.36 L
- CL (brain, 50 mg/kg I.V., 50 mg/kg): 16.57 ± 4.19 L/h
- V (brain, 100 mg/kg I.V.): 126.99 ± 46.68 L
- CL (brain, 100 mg/kg I.V., 100 mg/kg): 17.75 ± 6.77 L/h
- V (brain, 200 mg/kg I.V.): 76.07 ± 73.66 L
- Clast (kidney, 10 mg/kg I.V.): 163 ± 41.67 ng/mL
- Clast (kidney, 50 mg/kg I.V.): 109.33 ± 42.90 ng/mL
- V (kidney, 50 mg/kg I.V.): 78.88 ± 16.88 L
- Clast (kidney, 100 mg/kg I.V.): 119.88 ± 51.83 ng/mL
- V (kidney, 100 mg/kg I.V.): 172.86 ± 89.05 L
- Clast (kidney, 200 mg/kg I.V.): 146.45 ± 87.11 ng/mL
- V (kidney, 200 mg/kg I.V.): 163.98 ± 55.79 L
- Clast (liver, 10 mg/kg I.V.): 85.18 ± 32.60 ng/mL
- Clast (liver, 50 mg/kg I.V.): 252.73 ± 200.06 ng/mL
- Clast (liver, 100 mg/kg I.V.): 150.9 ± 103.92 ng/mL
- Clast (liver, 200 mg/kg I.V.): 310.9 ± 247.48 ng/mL
- clearance (male, C57BL/6, mouse, brain, iv, 10 mg/kg, 10 mg/kg I.V.): 66.3 mL/min
- Cmax (male, C57BL/6, mouse, brain, iv, 10 mg/kg, brain, 10 mg/kg I.V., read-out: Cmax): 101 ± 23.6 ng/g
- clearance (male, C57BL/6, mouse, brain, iv, 50 mg/kg, 50 mg/kg I.V.): 275 mL/min
- Cmax (male, C57BL/6, mouse, brain, iv, 50 mg/kg, brain, 50 mg/kg I.V., read-out: Cmax): 118 ± 76.7 ng/g
- clearance (male, C57BL/6, mouse, brain, iv, 100 mg/kg, 100 mg/kg I.V.): 295 mL/min
- Cmax (male, C57BL/6, mouse, brain, iv, 100 mg/kg, brain, 100 mg/kg I.V., read-out: Cmax): 377 ± 289 ng/g
- clearance (male, C57BL/6, mouse, brain, iv, 200 mg/kg, 200 mg/kg I.V.): 188 mL/min
- Cmax (male, C57BL/6, mouse, brain, iv, 200 mg/kg, brain, 200 mg/kg I.V., read-out: Cmax): 669 ± 316 ng/g
- half-life [1]: 17.2 ± 10.4 h
- AUC(0-t) [1]: 80 ± 20 ng·h/mL
- concentration at 24 h [1]: 2.27 ± 1.44 ng/mL
- k el [1]: 1.67e-05 s⁻¹
- half-life [2]: 6.23 ± 1.12 h
- AUC(0-t) [2]: 90 ± 30 ng·h/mL
- concentration at 24 h [2]: 2.73 ± 1.75 ng/mL
- k el [2]: 3.06e-05 s⁻¹
- half-life [3]: 5.03 ± 0.69 h
- AUC(0-t) [3]: 180 ± 70 ng·h/mL
- concentration at 24 h [3]: 2.88 ± 1.16 ng/mL
- k el [3]: 3.89e-05 s⁻¹
- half-life [4]: 4.39 ± 1.19 h
- AUC(0-t) [4]: 960 ± 860 ng·h/mL
- concentration at 24 h [4]: 14 ± 14.5 ng/mL
- k el [4]: 4.72e-05 s⁻¹
- AUC(0-t) (male, C57BL/6, mouse, iv, kidney, 10 mg/kg I.V.): 6300 ± 1690 ng·h/mL
- half-life [5]: 10.2 ± 2.99 h
- AUC(0-t) [5]: 7640 ± 1280 ng·h/mL
- k el [5]: 1.94e-05 s⁻¹
- half-life [6]: 13 ± 4.56 h
- AUC(0-t) [6]: 9420 ± 3060 ng·h/mL
- k el [6]: 1.67e-05 s⁻¹
- half-life [7]: 9.65 ± 5.34 h
- AUC(0-t) [7]: 14400 ± 4630 ng·h/mL
- k el [7]: 2.5e-05 s⁻¹
- AUC(0-t) (male, C57BL/6, mouse, iv, liver, 10 mg/kg I.V.): 3080 ± 1010 ng·h/mL
- AUC(0-t) (male, C57BL/6, mouse, iv, liver, 50 mg/kg I.V.): 2760 ± 980 ng·h/mL
- AUC(0-t) (male, C57BL/6, mouse, iv, liver, 100 mg/kg I.V.): 3320 ± 1280 ng·h/mL
- AUC(0-t) (male, C57BL/6, mouse, iv, liver, 200 mg/kg I.V.): 5440 ± 1950 ng·h/mL
- half-life [8]: 6.5 ± 2.36 h
- AUC(0-t) [8]: 5710 ± 2260 ng·h/mL
- concentration at 24 h [8]: 16.3 ± 7 ng/mL
- k el [8]: 3.06e-05 s⁻¹
- half-life [9]: 7.48 ± 0.41 h
- AUC(0-t) [9]: 6930 ± 930 ng·h/mL
- concentration at 24 h [9]: 69.7 ± 16.2 ng/mL
- k el [9]: 2.5e-05 s⁻¹
- half-life [10]: 8.37 ± 1.77 h
- AUC(0-t) [10]: 8380 ± 780 ng·h/mL
- concentration at 24 h [10]: 79.2 ± 16 ng/mL
- k el [10]: 2.5e-05 s⁻¹
- half-life [11]: 11 ± 6.38 h
- AUC(0-t) [11]: 12000 ± 1740 ng·h/mL
- concentration at 24 h [11]: 149 ± 94.1 ng/mL
- k el [11]: 2.22e-05 s⁻¹
- Cmax (male, C57BL/6, mouse, kidney, iv, 10 mg/kg, kidney, 10 mg/kg I.V., read-out: Cmax): 2950 ng/g
- clearance (male, C57BL/6, mouse, kidney, iv, 50 mg/kg, 50 mg/kg I.V.): 92.5 mL/min
- Cmax (male, C57BL/6, mouse, kidney, iv, 50 mg/kg, kidney, 50 mg/kg I.V., read-out: Cmax): 1190 ng/g
- clearance (male, C57BL/6, mouse, kidney, iv, 100 mg/kg, 100 mg/kg I.V.): 154 mL/min
- Cmax (male, C57BL/6, mouse, kidney, iv, 100 mg/kg, kidney, 100 mg/kg I.V., read-out: Cmax): 2580 ng/g
- clearance (male, C57BL/6, mouse, kidney, iv, 200 mg/kg, 200 mg/kg I.V.): 227 mL/min
- Cmax (male, C57BL/6, mouse, kidney, iv, 200 mg/kg, kidney, 200 mg/kg I.V., read-out: Cmax): 4660 ng/g
- Cmax (male, C57BL/6, mouse, liver, iv, 10 mg/kg, liver, 10 mg/kg I.V., read-out: Cmax): 1760 ± 526 ng/g
- Cmax (male, C57BL/6, mouse, liver, iv, 50 mg/kg, liver, 50 mg/kg I.V., read-out: Cmax): 513 ± 22 ng/g
- Cmax (male, C57BL/6, mouse, liver, iv, 100 mg/kg, liver, 100 mg/kg I.V., read-out: Cmax): 868 ± 378 ng/g
- Cmax (male, C57BL/6, mouse, liver, iv, 200 mg/kg, liver, 200 mg/kg I.V., read-out: Cmax): 2810 ng/g
- clearance (male, C57BL/6, mouse, plasma, iv, 10 mg/kg, 10 mg/kg I.V.): 1 mL/min
- Cmax (male, C57BL/6, mouse, plasma, iv, 10 mg/kg, plasma, 10 mg/kg I.V., read-out: Cmax): 2570 ng/mL
- clearance (male, C57BL/6, mouse, plasma, iv, 50 mg/kg, 50 mg/kg I.V.): 3.33 mL/min
- Cmax (male, C57BL/6, mouse, plasma, iv, 50 mg/kg, plasma, 50 mg/kg I.V., read-out: Cmax): 1380 ng/mL
- clearance (male, C57BL/6, mouse, plasma, iv, 100 mg/kg, 100 mg/kg I.V.): 5.33 mL/min
- Cmax (male, C57BL/6, mouse, plasma, iv, 100 mg/kg, plasma, 100 mg/kg I.V., read-out: Cmax): 2580 ng/mL
- clearance (male, C57BL/6, mouse, plasma, iv, 200 mg/kg, 200 mg/kg I.V.): 7.17 mL/min
- Cmax (male, C57BL/6, mouse, plasma, iv, 200 mg/kg, plasma, 200 mg/kg I.V., read-out: Cmax): 2320 ng/mL
- V (plasma, 10 mg/kg I.V.): 0.49 ± 0.08 L
- V (plasma, 50 mg/kg I.V.): 2.14 ± 0.34 L
- V (plasma, 100 mg/kg I.V.): 3.85 ± 0.55 L
- Cmax (plasma, 100 mg/kg I.V., 100 mg/kg): 2,577.50 ± 1,004.73 Ng/ml
- V (plasma, 200 mg/kg I.V.): 6.12 ± 2.08 L
- Cmax (plasma, 200 mg/kg I.V., 200 mg/kg): 2,322.50 ± 972.71 Ng/ml
